Data reported in patent US5688787A, “Substituted β-lactam compounds useful as hypochlesterolemic agents and processes for the preparation thereof” (priority 1996, dated 1997).
Like-named read-outs stand apart in the source and are kept apart here.

Tested on: Hyperlipidemic Hamster
Experiment: In Vivo Assay of Hypolipidemic Agents Using the Hyperlipidemic Hamster
Conditions: Mesocricetus auratus, po, 168 h, 7 days, percent change versus control, negative = lowering; for change in vivo at 50 mg/kg: 50 mg/kg once daily oral; for change in vivo at 3 mg/kg: 3 mg/kg once daily oral; for change in vivo at 10 mg/kg: 10 mg/kg once daily oral; for change in vivo at 40 mg/kg: 40 mg/kg once daily oral
Description: In Vivo Assay of Hypolipidemic Agents Using the Hyperlipidemic Hamster
Hamsters are separated into groups of six and given a controlled cholesterol diet (Purina Chow #5001 containing 0.5% cholesterol) for seven days. Diet consumption is monitored to determine dietary cholesterol exposure in the face of test compounds. The animals are dosed with the test compound once daily beginning with the initiation of diet. Dosing is by oral gavage of 0.2mL of corn oil alone (control group) or solution (or suspension) of test compound in corn oil. All animals roodbund or in poor physical condition are euthanized. After seven days, the animals are anesthetized by IM injection of ketamine and sacrificed by decapitation. Blood is collected into vacutainer tubes containing EDTA for plasma lipid analysis and the liver excised for tissue lipid analysis. Data is reported as percent reduction of lipid versus control.
Using the test procedures described above, the following in vitro and in vivo data were obtained for the preferred compounds, which are referred to in the following table by the corresponding example numbers. For the in vitro ACAT data, negative percent inhibition denotes apparent stimulation,while positive numbers denote inhibition. For the in vivo results, data is reported as percent change versus control, therefore, negative numbers indicate a positive lipid-lowering effect.

[1] = read-out: % Reduction (in vivo) Cholest. Esters
[2] = read-out: % Reduction (in vivo) Serum Cholest.

Work on `COc1ccc([C@@H]2[C@@H](CCCc3ccc([N+](=O)[O-])cc3)C(=O)N2c2ccc(OC)cc2)cc1` (relative stereo) [Example 7Z] yielded a change in vivo at 50 mg/kg [1] of -39% and a change in vivo at 50 mg/kg [2] of -21%.

Molecule `COc1ccc([C@@H]2[C@@H](CCCc3ccccc3)C(=O)N2c2ccccc2)cc1` (relative stereo) [Example 7] has a change in vivo at 3 mg/kg [1] of -50%, a change in vivo at 3 mg/kg [2] of -30% and a change in vivo at 10 mg/kg [1] of -89.5%. The change in vivo at 10 mg/kg [2] was -41%, the change in vivo at 40 mg/kg [1] was -95% and the change in vivo at 40 mg/kg [2] was -49%.

`COc1ccc([C@@H]2[C@@H](CCCc3ccc(N)cc3)C(=O)N2c2ccc(OC)cc2)cc1` (relative stereo) [Example 8E] showed a change in vivo at 50 mg/kg [1] of -32% and a change in vivo at 50 mg/kg [2] of 0%.

Molecule `COc1ccc([C@@H]2[C@H](N)C(=O)N2c2ccccc2)cc1` (relative stereo) [Example 11] has a change in vivo at 50 mg/kg [1] of 0% and a change in vivo at 50 mg/kg [2] of -8%.

`CCC(=O)N[C@@H]1C(=O)N(c2ccccc2)[C@@H]1c1ccc(OC)cc1` (relative stereo) [Example 12A] was tested, and the change in vivo at 50 mg/kg [1] was -39% and the change in vivo at 50 mg/kg [2] was -14%.

`COc1ccc([C@@H]2[C@H](NC(=O)COc3ccccc3)C(=O)N2c2ccccc2)cc1` (relative stereo) [Example 12B] showed a change in vivo at 50 mg/kg [1] of -26% and a change in vivo at 50 mg/kg [2] of 0%.

`COc1ccc([C@@H]2[C@H](NC(=O)OCc3ccccc3)C(=O)N2c2ccccc2)cc1` (relative stereo) [Example 12C] gave a change in vivo at 50 mg/kg [1] of 0% and a change in vivo at 50 mg/kg [2] of 0%.

`COc1ccc([C@@H]2[C@H](NC(=O)N(C)c3ccccc3)C(=O)N2c2ccccc2)cc1` (relative stereo) [Example 12D] was tested, and the change in vivo at 50 mg/kg [1] was 0% and the change in vivo at 50 mg/kg [2] was 0%.

`COc1ccc([C@@H]2[C@H](NC(=O)Cc3ccccc3)C(=O)N2c2ccccc2)cc1` (relative stereo) [Example 12] gave a change in vivo at 50 mg/kg [1] of 0% and a change in vivo at 50 mg/kg [2] of -12%.

`COc1ccc([C@@H]2[C@H](NS(=O)(=O)c3ccc(C)cc3)C(=O)N2c2ccccc2)cc1` (relative stereo) [Example 13] showed a change in vivo at 50 mg/kg [1] of 0% and a change in vivo at 50 mg/kg [2] of -18%.

`COc1ccc(CN[C@@H]2C(=O)N(c3ccccc3)[C@@H]2c2ccc(OC)cc2)cc1` (relative stereo) [Example 14A] showed a change in vivo at 50 mg/kg [1] of -78% and a change in vivo at 50 mg/kg [2] of 31%.

`COc1ccc([C@@H]2[C@H](NCC(c3ccccc3)c3ccccc3)C(=O)N2c2ccccc2)cc1` (relative stereo) [Example 14B] showed a change in vivo at 50 mg/kg [1] of 0% and a change in vivo at 50 mg/kg [2] of 0%.

In the case of `COc1ccc([C@@H]2[C@H](NCCCC3CCCCC3)C(=O)N2c2ccccc2)cc1` (relative stereo) [Example 14C], the change in vivo at 50 mg/kg [1] is reported as 0% and the change in vivo at 50 mg/kg [2] is reported as 0%.

With `COc1ccc([C@@H]2[C@H](NCCc3ccccc3)C(=O)N2c2ccccc2)cc1` (relative stereo) [Example 14] the change in vivo at 50 mg/kg [1] was -87% and the change in vivo at 50 mg/kg [2] was 30%.

`COc1ccc([C@@H]2[C@@H](CCCc3ccccc3)C(=O)N2c2ccc(S(C)(=O)=O)cc2)cc1` (relative stereo) [Example 17B] was tested, and the change in vivo at 50 mg/kg [1] was -39% and the change in vivo at 50 mg/kg [2] was 0%.

For `COc1ccc(N2C(=O)[C@@H](CCCc3ccccc3)[C@H]2c2ncc[nH]2)cc1` (relative stereo) [Example 18], the change in vivo at 50 mg/kg [1] was 0% and the change in vivo at 50 mg/kg [2] was 0%.

For `COc1ccc(N2C(=O)[C@H](CCCc3ccccc3)[C@H]2c2ccc(CN3CCN(C)CC3)cc2)cc1` (relative stereo) [Example 19C], the change in vivo at 50 mg/kg [1] was -46% and the change in vivo at 50 mg/kg [2] was -9%.

Molecule `COc1ccc(NC[C@H]2[C@@H](CCCc3ccccc3)C(=O)N2c2ccc(OC)cc2)cc1` (relative stereo) [Example 19D] has a change in vivo at 50 mg/kg [1] of -18% and a change in vivo at 50 mg/kg [2] of -15%.

Molecule `COc1ccc(N2C(=O)[C@H](CCCc3ccccc3)[C@@H]2CN2CCOCC2)cc1` (relative stereo) [Example 19E] has a change in vivo at 50 mg/kg [1] of -30% and a change in vivo at 50 mg/kg [2] of -19%.

In the case of `COc1ccc(N2C(=O)[C@H](CCCc3ccccc3)[C@H]2c2cc[n+]([O-])cc2)cc1` (relative stereo) [Example 20], the change in vivo at 50 mg/kg [1] is reported as 0% and the change in vivo at 50 mg/kg [2] is reported as 12%.

Work on `COCc1ccc([C@H]2[C@@H](CCCc3ccccc3)C(=O)N2c2ccc(OC)cc2)cc1` (relative stereo) [Example 21A] yielded a change in vivo at 50 mg/kg [1] of -25% and a change in vivo at 50 mg/kg [2] of 0%.

In the case of `COCc1ccc([C@@H]2[C@@H](CCCc3ccccc3)C(=O)N2c2ccc(OC)cc2)cc1` (relative stereo) [Example 21], the change in vivo at 50 mg/kg [1] is reported as -56% and the change in vivo at 50 mg/kg [2] is reported as -27%.

With `COc1ccc(N2C(=O)[C@H](CCCc3ccccc3)[C@@H]2c2ccc(C(=O)O)cc2)cc1` (relative stereo) [Example 22A] the change in vivo at 50 mg/kg [1] was -22% and the change in vivo at 50 mg/kg [2] was -16%.

`COc1ccc(N2C(=O)[C@@H](CCCc3ccccc3)[C@@H]2c2ccc(C(=O)O)cc2)cc1` (relative stereo) [Example 22] was tested, and the change in vivo at 50 mg/kg [1] was -33% and the change in vivo at 50 mg/kg [2] was -17%.

Work on `COc1ccc(N2C(=O)[C@H](CCCc3ccccc3)[C@@H]2c2ccc(C(=O)N3CCOCC3)cc2)cc1` (relative stereo) [Example 23] yielded a change in vivo at 50 mg/kg [1] of -40% and a change in vivo at 50 mg/kg [2] of -22%.

`CCOC(=O)c1ccc([C@@H]2[C@@H](CCCc3ccccc3)C(=O)N2c2ccc(OC)cc2)cc1` (relative stereo) [Example 24A] gave a change in vivo at 50 mg/kg [1] of -76% and a change in vivo at 50 mg/kg [2] of -21%.

For `CCOC(=O)c1ccc([C@H]2[C@@H](CCCc3ccccc3)C(=O)N2c2ccc(OC)cc2)cc1` (relative stereo) [Example 24], the change in vivo at 50 mg/kg [1] was 0% and the change in vivo at 50 mg/kg [2] was -17%.

`COc1ccc(N2C(=O)[C@H](CCCc3ccccc3)[C@H]2c2ccc(N(S(C)(=O)=O)S(C)(=O)=O)cc2)cc1` (relative stereo) [Example 25A] showed a change in vivo at 50 mg/kg [1] of 0% and a change in vivo at 50 mg/kg [2] of -13%.

Work on `COc1ccc(N2C(=O)[C@H](CCCc3ccccc3)[C@@H]2c2ccc(N(S(C)(=O)=O)S(C)(=O)=O)cc2)cc1` (relative stereo) [Example 25B] yielded a change in vivo at 50 mg/kg [1] of 0% and a change in vivo at 50 mg/kg [2] of 0%.

`COc1ccc(N2C(=O)[C@@H](CCCc3ccccc3)[C@@H]2c2ccc(NS(C)(=O)=O)cc2)cc1` (relative stereo) [Example 25C] was tested, and the change in vivo at 50 mg/kg [1] was -46% and the change in vivo at 50 mg/kg [2] was -8%.

`COc1ccc(N2C(=O)[C@H](CCCc3ccccc3)[C@@H]2c2ccc(NS(C)(=O)=O)cc2)cc1` (relative stereo) [Example 25] showed a change in vivo at 50 mg/kg [1] of -34% and a change in vivo at 50 mg/kg [2] of -8%.

Work on `COc1ccc(N2C(=O)[C@H](CCCc3ccccc3)[C@H]2c2ccc(NC(C)=O)cc2)cc1` (relative stereo) [Example 26] yielded a change in vivo at 50 mg/kg [1] of -26% and a change in vivo at 50 mg/kg [2] of -4%.

Work on `CON=Cc1ccc([C@H]2[C@H](CCCc3ccccc3)C(=O)N2c2ccc(OC)cc2)cc1` (relative stereo) [Example 27A] yielded a change in vivo at 50 mg/kg [1] of -42% and a change in vivo at 50 mg/kg [2] of -15%.

`CON=Cc1ccc([C@H]2[C@@H](CCCc3ccccc3)C(=O)N2c2ccc(OC)cc2)cc1` (relative stereo) [Example 27] showed a change in vivo at 50 mg/kg [1] of -36% and a change in vivo at 50 mg/kg [2] of -12%.

In the case of `COc1ccc(N2C(=O)[C@H](CCCc3ccccc3)[C@@H]2c2ccc(S)cc2)cc1` (relative stereo) [Example 28], the change in vivo at 50 mg/kg [1] is reported as 0% and the change in vivo at 50 mg/kg [2] is reported as -19%.
